Assays:
Rattus norvegicus [1] = species on record: Rattus norvegicus; test: Evaluated for the stimulation of synaptosomal release of Dopamine (release constant); assay type: functional
Mus musculus [2] = species on record: Mus musculus; test: Long term depletion of Norepinephrine (NE) in Whole mouse Brain at a low dose (60 nmol); assay type: functional
Mus musculus [3] = species on record: Mus musculus; test: Long term depletion of Dopamine(DA) in Whole mouse Brain at a high dose (300 nmol); assay type: functional
Mus musculus [4] = species on record: Mus musculus; test: Long term depletion of Dopamine(DA) in Whole mouse Brain at a low dose (60 nmol); assay type: functional
[5] = target: T1, Norepinephrine transporter (Rattus norvegicus, UniProt Q9WTR4); test: Evaluated for the Competitive inhibition of uptake of norepinephrine
T1 sequence (Q9WTR4 whole entry): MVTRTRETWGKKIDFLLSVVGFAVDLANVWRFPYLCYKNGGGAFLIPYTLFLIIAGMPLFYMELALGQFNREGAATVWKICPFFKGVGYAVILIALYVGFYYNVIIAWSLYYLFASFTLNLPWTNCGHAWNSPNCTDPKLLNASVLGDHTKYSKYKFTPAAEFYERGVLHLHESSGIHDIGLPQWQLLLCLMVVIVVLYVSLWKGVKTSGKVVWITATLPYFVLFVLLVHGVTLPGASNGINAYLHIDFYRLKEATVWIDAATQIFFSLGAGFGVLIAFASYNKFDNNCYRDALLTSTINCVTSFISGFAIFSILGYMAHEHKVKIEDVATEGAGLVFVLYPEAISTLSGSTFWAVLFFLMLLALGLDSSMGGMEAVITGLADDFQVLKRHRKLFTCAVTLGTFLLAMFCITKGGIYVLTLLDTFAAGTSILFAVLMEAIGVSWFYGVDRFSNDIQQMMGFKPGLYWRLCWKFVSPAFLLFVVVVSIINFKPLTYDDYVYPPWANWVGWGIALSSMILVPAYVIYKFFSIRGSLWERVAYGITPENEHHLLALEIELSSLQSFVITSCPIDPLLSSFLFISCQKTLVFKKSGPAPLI

Mus musculus [6] = species on record: Mus musculus; test: Long term depletion of Serotonin(5-HT) in Whole mouse Brain at a high dose (300 nmol); assay type: functional
Mus musculus [7] = species on record: Mus musculus; test: Long term depletion of Norepinephrine (NE) in Whole mouse Brain at a high dose (300 nmol); assay type: functional
Rattus norvegicus [8] = species on record: Rattus norvegicus; test: Evaluated for the stimulation of synaptosomal release of norepinephrine (release constant); assay type: functional
[9] = target: Sodium-dependent dopamine transporter (Rattus norvegicus, UniProt P23977); test: Evaluated for the Competitive inhibition of uptake of dopamine transporter
Sodium-dependent dopamine transporter, sequence (P23977 whole entry): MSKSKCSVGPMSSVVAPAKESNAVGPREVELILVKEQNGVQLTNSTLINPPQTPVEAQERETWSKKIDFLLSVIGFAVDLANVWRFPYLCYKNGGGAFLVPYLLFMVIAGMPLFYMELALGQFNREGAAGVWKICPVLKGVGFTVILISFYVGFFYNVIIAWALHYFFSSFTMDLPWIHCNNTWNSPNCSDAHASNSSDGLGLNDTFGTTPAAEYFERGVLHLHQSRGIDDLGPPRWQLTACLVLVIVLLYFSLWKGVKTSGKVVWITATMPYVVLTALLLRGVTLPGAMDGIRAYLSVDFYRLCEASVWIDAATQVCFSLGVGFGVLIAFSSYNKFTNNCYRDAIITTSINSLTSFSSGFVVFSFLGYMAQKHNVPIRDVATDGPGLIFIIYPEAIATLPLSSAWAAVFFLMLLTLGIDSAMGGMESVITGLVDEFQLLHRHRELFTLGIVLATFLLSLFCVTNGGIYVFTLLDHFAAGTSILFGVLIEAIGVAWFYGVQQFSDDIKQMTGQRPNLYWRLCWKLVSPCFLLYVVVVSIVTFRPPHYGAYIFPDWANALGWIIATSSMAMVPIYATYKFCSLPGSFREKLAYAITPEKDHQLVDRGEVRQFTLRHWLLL

Mus musculus [10] = species on record: Mus musculus; test: Long term depletion of Serotonin(5-HT) in Whole mouse Brain at a low dose (60 nmol); assay type: functional
[11] = target: T1, Norepinephrine transporter; test: Evaluated for the Non competitive inhibition of uptake of norepinephrine
Mus musculus [12] = species on record: Mus musculus; test: Long term depletion of Dopamine(DA) in Whole mouse Brain, region of midbrain at a high dose (300 nmol); assay type: functional
Mus musculus [13] = species on record: Mus musculus; test: Noradrenergic effect was determined by depletion effect of Serotonin(5-HT) in mouse brain regions expressed as log d50; assay type: functional, organism-based
Mus musculus [14] = species on record: Mus musculus; test: Long term depletion of Norepinephrine (NE) in Whole mouse Brain region of cortex at a high dose (300 nmol) with respect to control value(100+/-6); assay type: functional
Mus musculus [15] = species on record: Mus musculus; test: Long term depletion of Serotonin(5-HT) in Whole mouse Brain region of striatum at a high dose (300 nmol); assay type: functional
Mus musculus [16] = species on record: Mus musculus; test: Long term depletion of Serotonin(5-HT) in Whole mouse Brain, region of midbrain at a high dose (300 nmol); assay type: functional
Mus musculus [17] = species on record: Mus musculus; test: Long term depletion of Dopamine(DA) in Whole mouse Brain region of hippocampus at a high dose (300 nmol); assay type: functional
Mus musculus [18] = species on record: Mus musculus; test: Long term depletion of Serotonin(5-HT) in Whole mouse Brain region of thalamus at a high dose (300 nmol); assay type: functional
Mus musculus [19] = species on record: Mus musculus; test: Noradrenergic effect was determined by depletion effect of Serotonin(5-HT) in mouse brain regions expressed as d50; assay type: functional
Mus musculus [20] = species on record: Mus musculus; test: Long term depletion of Norepinephrine (NE) in Whole mouse Brain region of hippocampus at a high dose (300 nmol) with respect to control value(100+/-10); assay type: functional
Mus musculus [21] = species on record: Mus musculus; test: Long term depletion of Serotonin(5-HT) in Whole mouse Brain region of hippocampus at a high dose (300 nmol); assay type: functional
Mus musculus [22] = species on record: Mus musculus; test: Long term depletion of Dopamine(DA) in Whole mouse Brain region of striatum at a high dose (300 nmol); assay type: functional
Mus musculus [23] = species on record: Mus musculus; test: Long term depletion of Dopamine(DA) in Whole mouse Brain region of cerebellum at a high dose (300 nmol) with respect to control value(100+/-9); assay type: functional
Mus musculus [24] = species on record: Mus musculus; test: Noradrenergic effect was determined by depletion effect of Dopamine(DA) in mouse brain regions expressed as d50; assay type: functional
Mus musculus [25] = species on record: Mus musculus; test: Noradrenergic effect was determined by depletion effect of Dopamine(DA) in mouse brain regions expressed as log d50; assay type: functional, organism-based
Mus musculus [26] = species on record: Mus musculus; test: Long term depletion of Norepinephrine (NE) in Whole mouse Brain region of hypothalamus at a high dose (300 nmol); assay type: functional
Mus musculus [27] = species on record: Mus musculus; test: Long term depletion of Dopamine(DA) in Whole mouse Brain region of thalamus at a high dose (300 nmol); assay type: functional
Mus musculus [28] = species on record: Mus musculus; test: Long term depletion of Dopamine(DA) in Whole mouse Brain region of medulla-pons at a high dose (300 nmol) with respect to control value(100+/-8); assay type: functional
Mus musculus [29] = species on record: Mus musculus; test: Long term depletion of Serotonin(5-HT) in Whole mouse Brain region of cortex at a high dose (300 nmol); assay type: functional
Mus musculus [30] = species on record: Mus musculus; test: Long term depletion of Dopamine(DA) in Whole mouse Brain region of hypothalamus at a high dose (300 nmol) with respect to control value(100+/-14); assay type: functional
Mus musculus [31] = species on record: Mus musculus; test: Long term depletion of Norepinephrine (NE) in Whole mouse Brain region of striatum at a high dose (300 nmol); assay type: functional
Mus musculus [32] = species on record: Mus musculus; test: Long term depletion of Norepinephrine (NE) in Whole mouse Brain region of thalamus at a high dose (300 nmol); assay type: functional
Mus musculus [33] = species on record: Mus musculus; test: Long term depletion of Serotonin(5-HT) in Whole mouse Brain region of medulla-pons at a high dose (300 nmol) with respect to control value(100+/-6); assay type: functional
Mus musculus [34] = species on record: Mus musculus; test: Long term depletion of Dopamine(DA) in Whole mouse Brain region of cortex at a high dose (300 nmol); assay type: functional
Mus musculus [35] = species on record: Mus musculus; test: Noradrenergic effect was determined by depletion effect of Nerepinephrine (NE) in mouse brain regions expressed as d50; assay type: functional
Mus musculus [36] = species on record: Mus musculus; test: Long term depletion of Norepinephrine (NE) in Whole mouse Brain region of cerebellum at a high dose (300 nmol); assay type: functional
Mus musculus [37] = species on record: Mus musculus; test: Long term depletion of Norepinephrine (NE) in Whole mouse Brain, region of midbrain at a high dose (300 nmol) with respect to control value(100+/-8); assay type: functional
Mus musculus [38] = species on record: Mus musculus; test: Long term depletion of Norepinephrine (NE) in Whole mouse Brain region of medulla-pons at a high dose (300 nmol) with respect to control value(100+/-9); assay type: functional
Mus musculus [39] = species on record: Mus musculus; test: Long term depletion of Serotonin(5-HT) in Whole mouse Brain region of hypothalamus at a high dose (300 nmol); assay type: functional
Mus musculus [40] = species on record: Mus musculus; test: Long term depletion of Serotonin(5-HT) in Whole mouse Brain region of cerebellum at a high dose (300 nmol); assay type: functional
Mus musculus [41] = species on record: Mus musculus; test: Noradrenergic effect was determined by depletion effect of Nerepinephrine (NE) in mouse brain regions expressed as log d50; assay type: functional, organism-based
Mus musculus [42] = species on record: Mus musculus; test: Long term depletion of Norepinephrine (NE) in Whole mouse Brain, region of midbrain at a high dose (300 nmol); assay type: functional
Mus musculus [43] = species on record: Mus musculus; test: Long term depletion of Norepinephrine (NE) in Whole mouse Brain region of medulla-pons at a high dose (300 nmol); assay type: functional
Mus musculus [44] = species on record: Mus musculus; test: Long term depletion of Norepinephrine (NE) in Whole mouse Brain region of cortex at a high dose (300 nmol); assay type: functional
Mus musculus [45] = species on record: Mus musculus; test: Long term depletion of Dopamine(DA) in Whole mouse Brain region of cerebellum at a high dose (300 nmol); assay type: functional
Mus musculus [46] = species on record: Mus musculus; test: Long term depletion of Serotonin(5-HT) in Whole mouse Brain region of medulla-pons at a high dose (300 nmol); assay type: functional
Mus musculus [47] = species on record: Mus musculus; test: Long term depletion of Dopamine(DA) in Whole mouse Brain region of hypothalamus at a high dose (300 nmol); assay type: functional
Mus musculus [48] = species on record: Mus musculus; test: Long term depletion of Dopamine(DA) in Whole mouse Brain region of medulla-pons at a high dose (300 nmol); assay type: functional
Mus musculus [49] = species on record: Mus musculus; test: Long term depletion of Norepinephrine (NE) in Whole mouse Brain region of hippocampus at a high dose (300 nmol); assay type: functional

For `NCCc1cc(O)c(N)cc1O`, the EC50 (Rattus norvegicus [1]) was 21 µM, the Control (Mus musculus [2]) was 37% and the percent of control (Mus musculus [3]) was 85%. The Control (Mus musculus [4]) was 100%, the Ki [5] was 0.005 µM and the Control (Mus musculus [6]) was 72%. For the same molecule, the Control (Mus musculus [7]) was 39%, the EC50 (Rattus norvegicus [8]) was 34 µM and the Ki [9] was 0.009 µM. For the same molecule, the Control (Mus musculus [10]) was 73%.

`CC(N)Cc1cc(O)c(N)cc1O` (centres undefined) gave a Ki [11] of 0.001 µM, an EC50 (Rattus norvegicus [1]) of 8 µM and a Control (Mus musculus [2]) of 33%. It also gave a percent of control (Mus musculus [3]) of 88%, a Control (Mus musculus [4]) of 100% and a Control (Mus musculus [6]) of 83%. For the same molecule, the Control (Mus musculus [7]) was 40%, the EC50 (Rattus norvegicus [8]) was 51 µM and the Ki [9] was 0.003 µM. It also gave a Control (Mus musculus [10]) of 79%.

`NCCc1cc(O)c(O)cc1O` [OXIDOPAMINE] was tested, and the Control (Mus musculus [12]) was 88%, the EC50 (Rattus norvegicus [1]) was 60 µM and the Log d50 (Mus musculus [13]) was 3.28 nM. It also gave a Control (Mus musculus [2]) of 40%, a Control (Mus musculus [14]) of 9% and a Control (Mus musculus [15]) of 103%. For the same molecule, the Control (Mus musculus [16]) was 89%, the Control (Mus musculus [17]) was 25% and the Control (Mus musculus [18]) was 90%. It also gave a d50 (Mus musculus [19]) of 1930 nmol, a Control (Mus musculus [20]) of 5.3% and a Control (Mus musculus [21]) of 71%. It also gave a percent of control (Mus musculus [3]) of 71%, a Control (Mus musculus [22]) of 76% and a Control (Mus musculus [23]) of 72%. For the same molecule, the Control (Mus musculus [4]) was 86%, the d50 (Mus musculus [24]) was 831 nmol and the Log d50 (Mus musculus [25]) was 2.92 nM. It also gave a Control (Mus musculus [26]) of 6.9%, a Control (Mus musculus [27]) of 151% and a Control (Mus musculus [28]) of 158%. It also gave a Control (Mus musculus [29]) of 82%, a Control (Mus musculus [30]) of 116% and a Ki [5] of 0.051 µM. The Control (Mus musculus [31]) was 23%, the Control (Mus musculus [6]) was 88% and the Control (Mus musculus [7]) was 35%. It also gave a Control (Mus musculus [32]) of 18%, a Control (Mus musculus [33]) of 109% and a Control (Mus musculus [34]) of 53%. It also gave a d50 (Mus musculus [35]) of 34.3 nmol, a Control (Mus musculus [36]) of 3.8% and a Control (Mus musculus [37]) of 70%. It also gave an EC50 (Rattus norvegicus [8]) of 828 µM, a Control (Mus musculus [38]) of 47% and a Control (Mus musculus [39]) of 89%. It also gave a Control (Mus musculus [40]) of 79%, a Ki [9] of 0.012 µM and a Log d50 (Mus musculus [41]) of 1.53 nM.

`CC(N)Cc1cc(N)c(O)cc1O` (centres undefined) was tested, and the Control (Mus musculus [12]) was 116%, the EC50 (Rattus norvegicus [1]) was 380 µM and the Log d50 (Mus musculus [13]) was 3.51 nM. It also gave a Control (Mus musculus [2]) of 26%, a Control (Mus musculus [42]) of 74% and a Control (Mus musculus [15]) of 104%. For the same molecule, the Control (Mus musculus [16]) was 75%, the Control (Mus musculus [17]) was 42% and the Control (Mus musculus [43]) was 59%. The Control (Mus musculus [18]) was 93%, the d50 (Mus musculus [19]) was 3220 nmol and the Control (Mus musculus [21]) was 63%. The percent of control (Mus musculus [3]) was 74%, the Control (Mus musculus [22]) was 71% and the Control (Mus musculus [44]) was 8%. It also gave a Control (Mus musculus [4]) of 100%, a d50 (Mus musculus [24]) of 918 nmol and a Control (Mus musculus [45]) of 63%. It also gave a Control (Mus musculus [46]) of 101%, a Log d50 (Mus musculus [25]) of 2.96 nM and a Control (Mus musculus [26]) of 1.3%. The Control (Mus musculus [27]) was 154%, the Control (Mus musculus [29]) was 78% and the Control (Mus musculus [47]) was 120%. For the same molecule, the Ki [5] was 0.046 µM, the Control (Mus musculus [31]) was 7% and the Control (Mus musculus [6]) was 83%. It also gave a Control (Mus musculus [7]) of 22%, a Control (Mus musculus [32]) of 14% and a Control (Mus musculus [34]) of 57%. For the same molecule, the d50 (Mus musculus [35]) was 21.5 nmol, the Control (Mus musculus [48]) was 110% and the Control (Mus musculus [36]) was 3.4%. For the same molecule, the Control (Mus musculus [49]) was 6.4%, the EC50 (Rattus norvegicus [8]) was 672 µM and the Control (Mus musculus [39]) was 75%. It also gave a Control (Mus musculus [40]) of 77%, a Ki [9] of 0.112 µM and a Control (Mus musculus [10]) of 103%. The Log d50 (Mus musculus [41]) was 1.33 nM.

Reference: ChEMBL document CHEMBL1128462, “In vivo and in vitro studies on the neurotoxic potential of 6-hydroxydopamine analogs” (J Med Chem, 1995)
